Source: patent US20060183902A1, “Dihydroindolyl methanones as alpha 1a/1d adrenoreceptor modulators for the treatment of benign prostatic hypertrophy and lower urinary tract symptoms” (priority 2005, published 2006)
Like-named read-outs stand apart in the source and are kept apart here.

Legend:
[1] = target: T1, α1b-AR (Homo sapiens, UniProt P35368); test: α1-Adrenergic receptor radio-ligand (125I-HEAT) binding assay, α1b subtype; conditions: COS-7 cell membranes transfected with α1b-AR, 125I-HEAT 50 pM
T1 construct: expressed in transfected cells; host or cells: COS-7
T1 sequence (P35368 1-520): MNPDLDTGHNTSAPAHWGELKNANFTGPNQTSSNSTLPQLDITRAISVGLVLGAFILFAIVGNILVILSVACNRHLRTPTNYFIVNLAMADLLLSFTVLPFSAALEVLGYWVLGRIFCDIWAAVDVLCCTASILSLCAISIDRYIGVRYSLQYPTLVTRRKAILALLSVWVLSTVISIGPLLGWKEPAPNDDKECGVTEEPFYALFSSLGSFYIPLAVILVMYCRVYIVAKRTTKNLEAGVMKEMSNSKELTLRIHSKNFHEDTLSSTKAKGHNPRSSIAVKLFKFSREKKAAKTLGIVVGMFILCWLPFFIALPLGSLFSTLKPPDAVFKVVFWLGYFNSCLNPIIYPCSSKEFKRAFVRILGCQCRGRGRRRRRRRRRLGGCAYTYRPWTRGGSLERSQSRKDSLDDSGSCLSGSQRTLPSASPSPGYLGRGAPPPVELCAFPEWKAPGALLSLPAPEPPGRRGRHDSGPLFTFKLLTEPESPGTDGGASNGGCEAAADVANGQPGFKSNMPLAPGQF
Procedure, shortened: (§1)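 Membranes from COS-7 cells transfected with a single α1-AR subtype, incubated 1 h at rt with 50 pM 125I-HEAT and compound (1 pM–10 µM, half-log steps, final) in Tris/EDTA/NaCl pH 7.4. Bound radioactivity collected by GF/C filtration and scintillation counting, triplicates; Ki derived.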

[2] = target: T2, α1a-AR (Homo sapiens, UniProt P35348); test: α1-Adrenergic receptor radio-ligand (125I-HEAT) binding assay, α1a subtype; conditions: COS-7 cell membranes transfected with α1a-AR, 125I-HEAT 50 pM
T2 construct: expressed in transfected cells; host or cells: COS-7
T2 sequence (P35348 1-466): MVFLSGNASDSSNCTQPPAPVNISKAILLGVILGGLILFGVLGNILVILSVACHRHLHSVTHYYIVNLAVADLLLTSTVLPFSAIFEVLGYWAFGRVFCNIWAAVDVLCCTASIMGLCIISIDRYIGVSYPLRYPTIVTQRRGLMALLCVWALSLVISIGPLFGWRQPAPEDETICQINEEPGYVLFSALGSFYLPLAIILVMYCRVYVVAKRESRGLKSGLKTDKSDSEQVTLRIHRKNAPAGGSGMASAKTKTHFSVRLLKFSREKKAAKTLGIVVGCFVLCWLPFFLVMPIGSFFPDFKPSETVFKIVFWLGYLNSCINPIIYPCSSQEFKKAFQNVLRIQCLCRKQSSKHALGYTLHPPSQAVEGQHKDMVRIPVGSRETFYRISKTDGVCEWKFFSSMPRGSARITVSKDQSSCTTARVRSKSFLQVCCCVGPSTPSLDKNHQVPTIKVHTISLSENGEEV
Procedure, shortened: as §1

[3] = target: T3, α1d-AR (Homo sapiens, UniProt P25100); test: α1-Adrenergic receptor radio-ligand (125I-HEAT) binding assay, α1d subtype; conditions: COS-7 cell membranes transfected with α1d-AR, 125I-HEAT 50 pM
T3 construct: expressed in transfected cells; host or cells: COS-7
T3 sequence (P25100 1-572): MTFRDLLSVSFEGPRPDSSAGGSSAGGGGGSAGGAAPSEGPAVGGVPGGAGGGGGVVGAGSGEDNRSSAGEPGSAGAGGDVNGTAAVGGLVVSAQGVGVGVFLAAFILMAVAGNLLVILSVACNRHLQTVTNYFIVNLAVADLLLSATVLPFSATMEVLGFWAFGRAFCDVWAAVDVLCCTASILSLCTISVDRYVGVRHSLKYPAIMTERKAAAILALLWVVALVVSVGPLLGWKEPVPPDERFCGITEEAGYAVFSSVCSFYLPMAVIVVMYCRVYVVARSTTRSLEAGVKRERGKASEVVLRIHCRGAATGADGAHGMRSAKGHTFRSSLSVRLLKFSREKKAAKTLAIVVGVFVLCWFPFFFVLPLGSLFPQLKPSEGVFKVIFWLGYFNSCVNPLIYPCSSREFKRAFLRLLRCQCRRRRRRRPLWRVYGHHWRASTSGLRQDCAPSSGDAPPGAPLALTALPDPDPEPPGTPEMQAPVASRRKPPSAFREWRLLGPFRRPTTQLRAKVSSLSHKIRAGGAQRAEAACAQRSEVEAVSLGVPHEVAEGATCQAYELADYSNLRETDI
Procedure, shortened: as §1

[4] = read-out: Receptor Binding, Ki α1b-AR
[5] = read-out: Receptor Binding, Ki α1a-AR
[6] = read-out: Receptor Binding, Ki α1d-AR

melting point	Ki [1, 4]	Ki [2, 5]	Ki [3, 6]	SMILES	Ki ([1]; Receptor Binding, Ki α1b-AR)	Ki ([2]; Receptor Binding, Ki α1a-AR)	Ki ([3]; Receptor Binding, Ki α1d-AR)
80 to 83 °C	3450 nM	65 nM	98 nM	CC(C)Oc1ccccc1N1CCN(Cc2cccc(C(=O)N3CCc4cc(NS(=O)(=O)c5cccc6c(N(C)C)cccc56)ccc43)c2)CC1 [Cpd 3, 5-dimethylamino-naphthalene-1-sulfonic acid (1-{3-[4-(2-isopropoxy-phenyl)-piperazin-1-ylmethyl]-benzoyl}-2,3-dihydro-1H-indol-5-yl)-amide]			
137 to 139 °C	856 nM	2 nM	2.4 nM	CC(C)Oc1ccccc1N1CCN(Cc2cccc(C(=O)N3CCc4ccc(NCc5c(F)cccc5F)cc43)c2)CC1 [Cpd 6, [6-(2,6-difluoro-benzylamino)-2,3-dihydro-indol-1-yl]-{3-[4-(2-isopropoxy-phenyl)-piperazin-1-ylmethyl]-phenyl}-methanone]			
74 to 76 °C	389 nM	14 nM	15 nM	CC(C)Oc1ccccc1N1CCN(Cc2cccc(C(=O)N3CCc4cc(NCc5ccc(C(F)(F)F)cc5)ccc43)c2)CC1 [Cpd 8, {3-[4-(2-isopropoxy-phenyl)-piperazin-1-ylmethyl]-phenyl}-[5-(4-trifluoromethyl-benzylamino)-2,3-dihydro-indol-1-yl]-methanone]			
127 to 130 °C	2050 nM	26 nM	17 nM	CC(C)Oc1ccccc1N1CCN(Cc2cccc(C(=O)N3CCc4cc(NCc5c(F)cccc5F)ccc43)c2)CC1 [Cpd 9, [5-(2,6-difluoro-benzylamino)-2,3-dihydro-indol-1-yl]-{3-[4-(2-isopropoxy-phenyl)-piperazin-1-ylmethyl]-phenyl}-methanone]			
156 to 160 °C	6260 nM	5 nM	7 nM	CCOC(OCC)c1ccc(CNc2ccc3c(c2)N(C(=O)c2cccc(CN4CCN(c5ccccc5OC(C)C)CC4)c2)CC3)cc1 [Cpd 11]			
192 to 195 °C	43 nM	0.04 nM	4 nM	Cc1c(S(=O)(=O)Nc2ccc3c(c2)N(C(=O)c2cccc(CN4CCN(c5ccccc5OC(C)C)CC4)c2)CC3)sc2ccc(Cl)cc12 [Cpd 18, 5-chloro-3-methyl-benzo[b]thiophene-2-sulfonic acid (1-{3-[4-(2-isopropoxy-phenyl)-piperazin-1-ylmethyl]-benzoyl}-2,3-dihydro-1H-indol-6-yl)-amide]			
132 to 134 °C	383 nM	26 nM	2.3 nM	CC(=O)Nc1ccc(S(=O)(=O)Nc2ccc3c(c2)CCN3C(=O)c2cccc(CN3CCN(c4ccccc4OC(C)C)CC3)c2)cc1 [Cpd 19, N-[4-(1-{3-[4-(2-isopropoxy-phenyl)-piperazin-1-ylmethyl]-benzoyl}-2,3-dihydro-1H-indol-5-ylsulfamoyl)-phenyl]-acetamide]			
79 to 81 °C	1300 nM	67 nM	18 nM	COc1cccc(OC)c1CNc1ccc2c(c1)CCN2C(=O)c1cccc(CN2CCN(c3ccccc3OC(C)C)CC2)c1 [Cpd 25, [5-(2,6-dimethoxy-benzylamino)-2,3-dihydro-indol-1-yl]-{3-[4-(2-isopropoxy-phenyl)-piperazin-1-ylmethyl]-phenyl}-methanone]			
229 to 232 °C	200 nM	34 nM	2 nM	COc1cccc(OC)c1C(=O)Nc1ccc2c(c1)CCN2C(=O)c1cccc(CN2CCN(c3ccccc3OC(C)C)CC2)c1 [Cpd 26, N-(1-{3-[4-(2-isopropoxy-phenyl)-piperazin-1-ylmethyl]-benzoyl}-2,3-dihydro-1H-indol-5-yl)-2,6-dimethoxy-benzamide]			

SMILES	melting point	Ki [1, 4]	Ki [2, 5]	Ki [3, 6]	Ki ([1]; Receptor Binding, Ki α1b-AR)	Ki ([2]; Receptor Binding, Ki α1a-AR)	Ki ([3]; Receptor Binding, Ki α1d-AR)
Cc1ccc(OC(=O)Nc2ccc3c(c2)CCN3C(=O)c2cccc(CN3CCN(c4ccccc4OC(C)C)CC3)c2)cc1 [Cpd 4, (1-{3-[4-(2-isopropoxy-phenyl)-piperazin-1-ylmethyl]-benzoyl}2,3-dihydro-1H-indol-5-yl)-carbamic acid p-tolyl ester]	166 to 168 °C				96 nM	2.4 nM	20 nM
